According to patent US12606541B2, “PPARg modulators and methods of use” (Eisai R&D Management Co., Ltd., priority 2020, dated 2026):
pIC50: −log10 of the molar value. Like-named read-outs stand apart in the source and are kept apart here.

What was measured:
His6-TEV-PPARγ-(234-505) = target: T1, His6-TEV-PPARγ-(234-505) (Homo sapiens, UniProt P37231); assay: TR-FRET Assay to Measure Co-R Peptide Recruitment to PPARγ; type: biochemical; conditions: Co-R peptide (SMRT-ID2) recruitment; top final concentration 20 μM; read-out: TR-FRET i-Ag; AC50
T1 construct: The His6-TEV-PPARγ-(234-505) protein for assay was expressed and purified; TEV cleavage site (N); made in house
T1 sequence (P37231 234-505): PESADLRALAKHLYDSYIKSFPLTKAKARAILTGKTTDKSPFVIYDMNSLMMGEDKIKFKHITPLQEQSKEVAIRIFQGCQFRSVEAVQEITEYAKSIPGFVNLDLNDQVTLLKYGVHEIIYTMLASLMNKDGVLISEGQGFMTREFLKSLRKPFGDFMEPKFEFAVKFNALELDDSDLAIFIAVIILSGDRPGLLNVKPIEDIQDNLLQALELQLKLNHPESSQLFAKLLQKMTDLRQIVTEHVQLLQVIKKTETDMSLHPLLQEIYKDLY
Summary of the method: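 Corepressor recruitment is measured by adding terbium-labeled anti-His antibody and FITC SMRT-ID2 peptide, at 5 and 200 nM final, after a 20-minute room-temperature protein–compound incubation. After one further hour, signal is converted to percent response between DMSO and 500 nM T0070907 wells.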

UM-UC-9 engineered cells = assay: Cell proliferation / short-term viability assay, CellTiter-Glo 144 h; type: cell-based, human; conditions: read-out: CTGlo 144 h UMUC9.5, G150
Summary of the method: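 Viability read by CellTiter-Glo 2.0 luminescence at day 7 versus DMSO-vehicle wells and a T0 plate measured on day 0. Cells: UM-UC-9 engineered assay-ready stocks, 500 cells/well in high-glucose DMEM with 10% FBS, 37° C, 5% CO2.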

Row | Compound | AC50 (His6-TEV-PPARγ-(234-505)) | pIC50 (UM-UC-9 engineered cells) | pIC50 (UM-UC-9 engineered cells; Homo sapiens, UM-UC-9, 144 h)
1 | COc1cc(-c2cc(C(=O)N3CC[C@H](C(=O)Nc4cnn5ccc(C(C)O)nc45)CC34CC4)n[nH]2)c(F)cn1 (single isomer, unassigned) [Example 445-A] | 0.6 nM | 7.81 | –
2 | COc1cc(-c2cc(C(=O)N3CC[C@H](C(=O)Nc4cnn5ccc(C(C)O)nc45)CC34CC4)n[nH]2)c(F)cn1 (single isomer, unassigned) [Example 445-B] | 11 nM | 6.94 | –
3 | COc1cc(-c2cc(C(=O)N3CC[C@H](C(=O)NC4CCN(c5ccnc6[nH]ncc56)C4)CC34CC4)n[nH]2)c(F)cn1 (single isomer, unassigned) [Example 450-A] | 3.3 nM | 6.79 | –
4 | COc1cc(-c2cc(C(=O)N3CC[C@H](C(=O)NC4CCN(c5ccnc6[nH]ncc56)C4)CC34CC4)n[nH]2)c(F)cn1 (single isomer, unassigned) [Example 450-B] | 6.8 nM | 6.08 | –
5 | COc1cc(-c2cc(C(=O)N3CC[C@H](C(=O)NC4CCN(c5cnnc(C)c5)C4)CC34CC4)n[nH]2)c(F)cn1 (single isomer, unassigned) [Example 452-A] | 8.7 nM | 5.70 | –
6 | COc1cc(-c2cc(C(=O)N3CC[C@H](C(=O)NC4CCN(c5cnnc(C)c5)C4)CC34CC4)n[nH]2)c(F)cn1 (single isomer, unassigned) [Example 452-B] | 142 nM | < 5.00 | –
7 | COc1cc(-c2cc(C(=O)N3CC[C@H](C(=O)NC4CCN(c5cnc(C)nc5)C4)CC34CC4)n[nH]2)c(F)cn1 (single isomer, unassigned) [Example 453-A] | 6 nM | 7.83 | –
8 | COc1cc(-c2cc(C(=O)N3CC[C@H](C(=O)NC4CCN(c5cnc(C)nc5)C4)CC34CC4)n[nH]2)c(F)cn1 (single isomer, unassigned) [Example 453-B] | 8.2 nM | 6.40 | –
9 | COc1cc(-c2cc(C(=O)N3CC[C@H](C(=O)NC4CCN(CC5(O)COC5)C4)CC34CC4)n[nH]2)c(F)cn1 (single isomer, unassigned) [Example 454-A] | 88.7 nM | 5.75 | –
10 | COc1cc(-c2cc(C(=O)N3CC[C@H](C(=O)NC4CCN(CC5(O)COC5)C4)CC34CC4)n[nH]2)c(F)cn1 (single isomer, unassigned) [Example 454-B] | 100 nM | 5.73 | –
11 | COc1cc(-c2cc(C(=O)N3CC[C@H](C(=O)NC4CCN(CC(F)(F)CO)C4)CC34CC4)n[nH]2)c(F)cn1 (single isomer, unassigned) [Example 459-A] | 8 nM | 6.56 | –
12 | COc1cc(-c2cc(C(=O)N3CC[C@H](C(=O)NC4CCN(CC(F)(F)CO)C4)CC34CC4)n[nH]2)c(F)cn1 (single isomer, unassigned) [Example 459-B] | 13.1 nM | 7.08 | –
13 | COc1cc(-c2cc(C(=O)N3CC[C@H](C(=O)NC4CCN(C5COC56CNC6)C4)CC34CC4)n[nH]2)c(F)cn1 (single isomer, unassigned) [Example 461-A] | 272 nM | < 5.00 | –
14 | COc1cc(-c2cc(C(=O)N3CC[C@H](C(=O)NC4CCN(C5COC56CNC6)C4)CC34CC4)n[nH]2)c(F)cn1 (single isomer, unassigned) [Example 461-B] | 324 nM | < 5.00 | –
15 | COc1cc(-c2cc(C(=O)N3CC[C@H](C(=O)NC4CCN(C5COC56CNC6)C4)CC34CC4)n[nH]2)c(F)cn1 (single isomer, unassigned) [Example 461-C] | 375 nM | < 5.00 | –
16 | COc1cc(-c2cc(C(=O)N3CC[C@H](C(=O)NC4CCN(C5COC56CNC6)C4)CC34CC4)n[nH]2)c(F)cn1 (single isomer, unassigned) [Example 461-D] | 388 nM | < 5.00 | –
17 | COc1cc(-c2cc(C(=O)N3CC[C@H](C(=O)NCc4ncc(N5CC6CC5CN6)cc4Cl)CC34CC4)n[nH]2)c(F)cn1 (single isomer, unassigned) [Example 462-A] | 22.5 nM | 6.26 | –
18 | COc1cc(-c2cc(C(=O)N3CC[C@H](C(=O)NCc4ncc(N5CC6CC5CN6)cc4Cl)CC34CC4)n[nH]2)c(F)cn1 (single isomer, unassigned) [Example 462-B] | 14.4 nM | 6.24 | –
19 | COc1cc(-c2cc(C(=O)N3CC[C@H](C(=O)NC4CCN(C5COC56CCC6)C4)CC34CC4)n[nH]2)c(F)cn1 (single isomer, unassigned) [Example 464-D] | 7.6 nM | – | 7.60
20 | COc1cc(-c2cc(C(=O)N3CC[C@H](C(=O)NCc4ncc(N5CC6CC5CN6)cn4)CC34CC4)n[nH]2)c(F)cn1 (single isomer, unassigned) [Example 467-A] | 327 nM | < 5.00 | –

Row | Compound | AC50 (His6-TEV-PPARγ-(234-505)) | pIC50 (UM-UC-9 engineered cells) | pIC50 (UM-UC-9 engineered cells; Homo sapiens, UM-UC-9, 144 h)
21 | COc1cc(-c2cc(C(=O)N3CC[C@H](C(=O)NCc4ncc(N5CC6CC5CN6)cn4)CC34CC4)n[nH]2)c(F)cn1 (single isomer, unassigned) [Example 467-B] | 644 nM | < 5.00 | –
22 | COc1cc(-c2cc(C(=O)N3CC[C@H](C(=O)NC4CCC(O)(C(F)(F)F)C(O)C4)CC34CC4)n[nH]2)c(F)cn1 (single isomer, unassigned) [Example 474-C] | 5.4 nM | – | 7.63
23 | COc1cc(-c2cc(C(=O)N3CC[C@H](C(=O)NC4CCC(O)(C(F)(F)F)C(O)C4)CC34CC4)n[nH]2)c(F)cn1 (single isomer, unassigned) [Example 474-D] | 331 nM | 5.69 | –
24 | COc1cc(-c2cc(C(=O)N3CC[C@H](C(=O)NC4CCC(O)(C(F)(F)F)C(O)C4)CC34CC4)n[nH]2)c(F)cn1 (single isomer, unassigned) [Example 474-E] | 1500 nM | 5.72 | –
25 | COc1cc(-c2cc(C(=O)N3CC[C@H](C(=O)NC4CCC(O)(C(F)(F)F)C(O)C4)CC34CC4)n[nH]2)c(F)cn1 (single isomer, unassigned) [Example 474-F] | 71.6 nM | 5.60 | –
26 | COc1cc(-c2cc(C(=O)N3CC[C@H](C(=O)NC(C)c4cc5n(n4)CCN(C)C5)CC34CC4)n[nH]2)c(F)cn1 (single isomer, unassigned) [Example 475-A] | 433 nM | 5.55 | –
27 | COc1cc(-c2cc(C(=O)N3CC[C@H](C(=O)NC(C)c4cc5n(n4)CCN(C)C5)CC34CC4)n[nH]2)c(F)cn1 (single isomer, unassigned) [Example 475-B] | 102 nM | 6.23 | –
28 | CCc1cc(-c2cc(C(=O)N3CCC(C(=O)NCc4ncc(F)cc4Cl)CC34CC4)n[nH]2)c(F)cn1 (single isomer, unassigned) [Example 483-A] | 216 nM | 5.82 | –
29 | CCc1cc(-c2cc(C(=O)N3CCC(C(=O)NCc4ncc(F)cc4Cl)CC34CC4)n[nH]2)c(F)cn1 (single isomer, unassigned) [Example 483-B] | 0.9 nM | 8.14 | –
30 | COc1cc(-c2cc(C(=O)N3CC[C@H](C(=O)Nc4cnn5cc(C(C)O)ccc45)CC34CC4)n[nH]2)c(F)cn1 (single isomer, unassigned) [Example 495-A] | 23.2 nM | 6.54 | –
31 | COc1cc(-c2cc(C(=O)N3CC[C@H](C(=O)Nc4cnn5cc(C(C)O)ccc45)CC34CC4)n[nH]2)c(F)cn1 (single isomer, unassigned) [Example 495-B] | 13.3 nM | 6.84 | –
32 | COc1cc(-c2cc(C(=O)N3CC[C@H](C(=O)NC4CCC(C(F)(F)F)C(O)C4)CC34CC4)n[nH]2)c(F)cn1 (single isomer, unassigned) [Example 501-A] | 7.8 nM | 7.67 | –
33 | COc1cc(-c2cc(C(=O)N3CC[C@H](C(=O)NC4CCC(C(F)(F)F)C(O)C4)CC34CC4)n[nH]2)c(F)cn1 (single isomer, unassigned) [Example 501-B] | 51.1 nM | 6.59 | –
34 | COc1cc(-c2cc(C(=O)N3CC[C@H](C(=O)NC4CCCn5cc(C(F)(F)F)nc54)CC34CC4)n[nH]2)c(F)cn1 (single isomer, unassigned) [Example 502-A] | 110 nM | 6.12 | –
35 | COc1cc(-c2cc(C(=O)N3CC[C@H](C(=O)NC4CCCn5cc(C(F)(F)F)nc54)CC34CC4)n[nH]2)c(F)cn1 (single isomer, unassigned) [Example 502-B] | 5.3 nM | 7.18 | –
36 | COc1cc(-c2cc(C(=O)N3CC[C@H](C(=O)NCC4CCNCC4(F)F)CC34CC4)n[nH]2)c(F)cn1 (single isomer, unassigned) [Example 511-A] | 17.2 nM | 7.20 | –
37 | COc1cc(-c2cc(C(=O)N3CC[C@H](C(=O)NCC4CCNCC4(F)F)CC34CC4)n[nH]2)c(F)cn1 (single isomer, unassigned) [Example 511-B] | 18.5 nM | 7.11 | –
38 | COc1cc(-c2cc(C(=O)N3CC[C@H](C(=O)Nc4cnn5c4CC(O)CC5)CC34CC4)n[nH]2)c(F)cn1 (single isomer, unassigned) [Example 514-A] | 149 nM | 5.38 | –
39 | COc1cc(-c2cc(C(=O)N3CC[C@H](C(=O)Nc4cnn5c4CC(O)CC5)CC34CC4)n[nH]2)c(F)cn1 (single isomer, unassigned) [Example 514-B] | 59.6 nM | 5.37 | –
